Test results reported in ChEMBL document CHEMBL3045295, “Antifeedant triterpenoids from the seeds and bark of Lansium domesticum cv Kokossan (Meliaceae)” (2011).

test system: Henosepilachna vigintioctopunctata; assay: Antifeedant activity against fourth-instar larvae of Henosepilachna vigintioctopunctata on Solanum nigrum leaves at 1 % relative to control; assay type: functional

Which AFI does the source give for `C=C1CC[C@H]2C(C)(C)C(=O)CC[C@]2(C)[C@H]1CC[C@H]1C(C)=CC[C@H]2C(C)(C)C(=O)CC[C@]12C` here?
Its AFI is 56%.

`CC1=CC[C@H]2C(C)(C)C(=O)CC[C@]2(C)[C@H]1CC[C@H]1C(C)=CC[C@H]2C(C)(C)C(=O)CC[C@]12C` was tested. Which AFI did it give?
Its AFI is 85%.

For `COC(=O)[C@@H]1O[C@]23O[C@H]4CC[C@]5(C)C(=CC(=O)O[C@H]5c5ccoc5)[C@H]4C[C@]2(O)C(=O)C(C)(C)[C@H]1[C@@H]3C` [KOKOSANOLIDE A], which AFI is on record?
Its AFI is 78%.

How did the AFI turn out when `COC(=O)[C@@H]1O[C@]23O[C@H]4CC[C@]5(C)C(=CC(=O)O[C@H]5c5ccoc5)[C@H]4C[C@]2(O)CC(C)(C)[C@H]1[C@@H]3C` [KOKOSANOLIDE C] was run?
Its AFI is 0%.

How did the AFI turn out when `CC1=CC[C@H]2C(C)(C)C(=O)CC[C@]2(C)[C@H]1CC[C@H]1C(C)(O)CC[C@H]2C(C)(C)C(=O)CC[C@]12C` (stereo not given in full) [Kokosanolide B] was run?
Its AFI is 99%.
